Results reported in publication PMC12298104, “mRNA Expression of Two Colon Enzymes in Pre-Pubertal Gilts During a 42-Day Exposure to Zearalenone” (Toxins, 2025).

How the values were obtained:
[1] = Concentrations of ZEN, α-ZEL and β-ZEL in colon tissue (immunoaffinity extraction, LC-MS/MS); assay type: in vivo, pre-pubertal gilts; conditions: for ZEN metabolites in the distal colon: gilts given 40 μg ZEN/kg BW orally daily, 42 days; for difference in mean ZEN levels between ascending and descending colon / difference in ZEN concentration in the descending colon: p ≤ 0.01
Method: (§1) Group E gilts were given ZEN orally at a dose of 40 μg ZEN/kg BW (Table 1). At the time of designing the experiment, the above value was equivalent to the no-observed-adverse-effect level (NOAEL) stipulated in the EFSA guidelines, which is 10 times higher than the current dose. Animals from group C received a placebo. The experiment lasted 42 days. The ZEN dose was adjusted to the BW of group E animals. Zearalenone was administered in enteric-coated capsules to avoid problems with uneven food intake. On each day of the experiment, the mycotoxin was administered orally before the morning feeding. Feed was used as a vector. Group C gilts received a placebo, i.e., the same gastro-resistant capsules with the vector, but without ZEN. Zearalenone was dissolved in 500 μL of 96% C2H5OH (96% ethyl, SWW 2442-90, Polskie Odczynniki Chemiczne SA, Gliwice, Poland) to obtain the dose needed (adjusted to BW). The obtained solutions were stored at a temperature of 20 °C for 12 h. Pre-pubertal gilts were weighed once a week to adjust ZEN doses to the needs of each animal. Three gilts from each experiment group were killed on day 7 (1st week of exposure), 14 (2nd week of exposure), 21 (3rd week of exposure), 28 (4th week of exposure), 35 (5th week of exposure), and 42 (6th week of exposure). On each of the above dates, the animals were euthanized by intravenous administration of sodium pentobarbital (Fatro, Ozzano Emilia, BO, Italy). Tissue samples (approx. 1.0 cm × 1.5 cm) from the middle parts of both examined colon sections were collected immediately after cardiac arrest. Samples were washed with phosphate buffer and prepared for toxicological analyses and gene expression assessment. Laboratory analyses were conducted within one month after tissue sampling.
Zearalenone, α-ZEL, and β-ZEL were extracted from tissue samples using immunoaffinity columns (Zearala-TestTM Zearalenone Testing System, G1012, VICAM, Watertown, MA, USA) according to the manufacturer’s instructions. The eluates were placed in a water bath at 50 °C and evaporated in nitrogen stream. Until chromatographic analysis, the dry residues were stored at −20 °C. The results were verified by mass spectrometry and the procedure was monitored using internal standards.
ZEN, α-ZEL, and β-ZEL tissue concentrations were determined using an Agilent 1260 liquid chromatograph (LC) and an Agilent 6470 mass spectrometer (MS). The prepared samples were analyzed using an Agilent ZORBAX high-resolution HPLC column (Agilent Eclipse Plus C18; 2.1 × 50 mm, 1.8 µm) in a gradient elution program. The mobile phase consisted of 0.1% (v/v) formic acid dissolved in water (solvent A) and 0.1% (v/v) formic acid dissolved in acetonitrile (solvent B). The gradient program began with 20% B, which was increased to 100% B after 4.0 min and decreased to 20% B after 0.1 min.
Mycotoxins were quantified using external standards and were expressed in ppb (ng/mL). Calibration standards are fitted to the detector to eliminate detector influences that may reduce test sensitivity. Following the procedure described for the remaining samples, calibration standards were dissolved in the matrix samples (matrix-matched calibration). The material for the preparation of calibration standards was free from mycotoxins. The signal-to-noise ratio (3:1) was […] for ZEN, α-ZEL, and β-ZEL. The LOQ was defined as three times the LOD.
Electrospray ionization (ESI) mass spectrometry was performed in negative ion mode. MS/MS indices were optimized for all compounds. Using a six-level calibration curve, linearity was assessed.
The results were statistically processed at the Department of Discrete Mathematics and Theoretical Computer Science, Faculty of Mathematics and Computer Science of the University of Warmia and Mazury in Olsztyn. […]

[2] = Clinical signs during the 42-day exposure; assay type: in vivo, pre-pubertal gilts; conditions: 40 μg ZEN/kg BW orally daily for 42 days
Method: as §1, with “On each of the above dates, the animals were euthanized by intravenous administration of sodium pentobarbital (Fatro, Ozzano Emilia, BO, Italy). Tissue samples (approx. 1.0 cm × 1.5 cm) from the middle parts of both examined colon sections were collected immediately after cardiac arrest. Samples were washed with phosphate buffer and prepared for toxicological analyses and gene expression assessment. Laboratory analyses were conducted within one month after tissue sampling.” left out

CYP1A1 gene = assay: CYP1A1 mRNA expression in the ascending and descending colon (qPCR); assay type: in vivo, pre-pubertal gilts; set-up: difference in CYP1A1 gene expression between groups C and E: scale not given here; conditions: for mean CYP1A1 gene expression during the entire experiment (expression ratio vs control at start = 1.00): group E
Method: as §1
(§2) Colon tissue samples were collected immediately after cardiac arrest. According to the manufacturer’s instructions (Sigma-Aldrich, Taufkirchen, Germany), samples were stored in RNAlater solution.
(§3) According to the manufacturer’s protocol, total RNA was extracted from tissues preserved in RNAlater (ca. 20 mg per sample; […] in each group) using the Total RNA Mini kit (A&A Biotechnology, Gdynia, Poland). RNA samples were incubated in ribonuclease-free DNAse I (Roche Diagnostics, Mannheim, Germany) to prevent contamination with genomic DNA. Overall RNA quality and purity from all samples were assessed using a BioPhotometer (Eppendorf, Germany) and the results were used for cDNA synthesis using the RevertAid™ First Strand cDNA Synthesis Kit (Fermentas, Burlington, ON, Canada). According to the manufacturer’s protocol, the reaction was performed using a cDNA synthesis reaction mixture for each sample, which consisted of 1 µg of total RNA and 0.5 µg of oligo (dT)18 primers. The first synthesized cDNA chain was stored at −20 °C pending further analysis.
Real-time PCR primers for target mRNA were designed using the Primer-BLAST tool based on reference species (Table 4). Real-time PCR was performed on an ABI 7500 Real-Time PCR system (Applied Biosystems, Foster City, CA, USA) in single plex mode; further procedures were performed according to the manufacturer’s instructions. Each PCR reaction tube contained 10 μL of the FastStart SYBR Green Master ROX mix (Roche Diagnostics), 0.25–0.5 μM of each primer (forward and reverse; Table 4), and 1 μL of the previously synthesized cDNA as a template, supplemented with PCR-grade H2O to a final volume of 20 μL. The reaction was performed under the following standard thermal conditions: 95 °C for 10 min, followed by 45 cycles of 95 °C for 15 s and 60 °C for 1 min. Negative water controls (NTCs) were included to rule out cross-contamination. The quality of PCR products was verified by melting curve analysis, followed by agarose gel electrophoresis. The specificity of the designed primer pairs was confirmed by sequencing the obtained PCR products ([…]). […]

GSTπ1 gene = assay: GSTπ1 mRNA expression in the ascending and descending colon (qPCR); assay type: in vivo, pre-pubertal gilts; conditions: for difference in GSTπ1 gene expression between groups C and E: p ≤ 0.05; for average expression of the GSTπ1 gene during the entire experiment (expression ratio vs control at start = 1.00): group E
Method: as §1, §2, §3
Real-time PCR primers for target mRNA were designed using the Primer-BLAST tool based on reference species (Table 4). Real-time PCR was performed on an ABI 7500 Real-Time PCR system (Applied Biosystems, Foster City, CA, USA) in single plex mode; further procedures were performed according to the manufacturer’s instructions. Each PCR reaction tube contained 10 μL of the FastStart SYBR Green Master ROX mix (Roche Diagnostics), 0.25–0.5 μM of each primer (forward and reverse; Table 4), and 1 μL of the previously synthesized cDNA as a template, supplemented with PCR-grade H2O to a final volume of 20 μL. […]

[3] = set-up: method as in PMID 25283475; conditions: value at the time of designing the experiment; 10 times higher than the current dose; cited from earlier work
[4] = cited from earlier work

C[C@H]1CCC[C@@H](O)CCC/C=C/c2cc(O)cc(O)c2C(=O)O1 [β-ZEL, β-zearalenol]
ZEN metabolites in the distal colon [1]: no ZEN metabolites (α-ZEL and β-ZEL) were found

C[C@H]1CCCC(=O)CCC/C=C/c2cc(O)cc(O)c2C(=O)O1 [ZEN, Zearalenone]
ZEN strength in the ascending colon, on average ([1]; 40 μg ZEN/kg BW orally daily, average over each week of exposure (weeks 1-6)): 2.09 ng ZEN/g
mean ZEN strength in the descending colon, on average ([1]; 40 μg ZEN/kg BW orally daily, first three weeks of exposure): 6.4 ng ZEN/g
concentration at 4 week of exposure ([1]; female, pig, descending colon tissue, po, 40 μg ZEN/kg BW orally daily, week 4): 205 ng/g
concentration at 5 week of exposure ([1]; female, pig, descending colon tissue, po, 40 μg ZEN/kg BW orally daily, week 5): 177 ng/g
concentration at 6 week of exposure ([1]; female, pig, descending colon tissue, po, 40 μg ZEN/kg BW orally daily, week 6): 112 ng/g
difference in mean ZEN levels between ascending and descending colon ([1]; week 4): 200.33 ng ZEN/g
difference in ZEN concentration in the descending colon ([1]; week 4 vs week 1): 200.31 ng ZEN/g
difference in ZEN concentration in the descending colon ([1]; week 4 vs week 2): 198.21 ng ZEN/g
difference in ZEN concentration in the descending colon ([1]; week 4 vs week 3): 197.44 ng ZEN/g
difference in mean ZEN levels between ascending and descending colon ([1]; week 5): 173.61 ng ZEN/g
difference in ZEN concentration in the descending colon ([1]; week 5 vs week 1): 172.31 ng ZEN/g
difference in ZEN concentration in the descending colon ([1]; week 5 vs week 2): 170.21 ng ZEN/g
difference in mean ZEN levels between ascending and descending colon ([1]; week 6): 109.55 ng ZEN/g
clinical signs of zearalenone mycotoxicosis [2]: No clinical signs
difference in CYP1A1 gene expression between groups C and E (CYP1A1 gene; ascending colon, week 4, p ≤ 0.01): 0.98
difference in CYP1A1 gene expression between groups C and E (CYP1A1 gene; ascending colon, week 5, p ≤ 0.01): 1.16
difference in CYP1A1 gene expression between groups C and E (CYP1A1 gene; descending colon, week 1, higher in group C, p ≤ 0.01): 0.41
difference in CYP1A1 gene expression between groups C and E (CYP1A1 gene; descending colon, week 2, higher in group C, p ≤ 0.05): 0.14
difference in CYP1A1 gene expression between groups C and E (CYP1A1 gene; descending colon, week 3, higher in group E, p ≤ 0.05): 0.13
difference in CYP1A1 gene expression between groups C and E (CYP1A1 gene; descending colon, week 5, higher in group C, p ≤ 0.05): 0.24
mean CYP1A1 gene expression during the entire experiment (expression ratio vs control at start = 1.00) (CYP1A1 gene; ascending colon, group C 0.99): 0.73
mean CYP1A1 gene expression during the entire experiment (expression ratio vs control at start = 1.00) (CYP1A1 gene; descending colon, group C 0.57): 0.43
difference in GSTπ1 gene expression between groups C and E (GSTπ1 gene; ascending colon, week 1, higher in group C): 0.35
difference in GSTπ1 gene expression between groups C and E (GSTπ1 gene; descending colon, week 2, lower in group E): 0.27
difference in GSTπ1 gene expression between groups C and E (GSTπ1 gene; descending colon, week 6, lower in group E): 0.34
average expression of the GSTπ1 gene during the entire experiment (expression ratio vs control at start = 1.00) (GSTπ1 gene; ascending colon, group C 0.96): 0.39
average expression of the GSTπ1 gene during the entire experiment (expression ratio vs control at start = 1.00) (GSTπ1 gene; descending colon, group C 1.07): 0.94
no-observed-adverse-effect level (NOAEL) [3]: 40 μg ZEN/kg BW
solubility in fats and alkaline aqueous solutions ([4]; fats and alkaline aqueous solutions): soluble in fats and alkaline aqueous solutions
solubility in water ([4]; water): almost insoluble in water

C[C@H]1CCC[C@H](O)CCC/C=C/c2cc(O)cc(O)c2C(=O)O1 [α-ZEL, α-zearalenol]
ZEN metabolites in the distal colon [1]: no ZEN metabolites (α-ZEL and β-ZEL) were found
